Consider eight compounds from PubChem BioAssay (NCI).

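All cell lines were grown in 96-well plates and treated with compound for 48 hours. GI50: concentration for 50% inhibition of growth. At the TGI there is no net growth.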 A value given as a limit tells only on which side of the number the result lay.

Experiment in all cases: DTP human tumour cell line panel, 48 h
The subject of assay [1] is RXF 393 renal.
The subject of assay [2] is A498 renal.
For assay [3], the system named is HOP-92 NSCLC.
For assay [4], the system named is HOP-62 NSCLC.
The test system of assay [5] is M14 melanoma.
Assay [6] relates to HL-60(TB) leukemia.
Assay [7] has as its system RPMI-8226 leukemia.
The subject of assay [8] is DU-145 prostate.
For assay [9], the system named is OVCAR-4 ovarian.
Assay [10] deals with NCI-H226 lung.

Usually GI50 stands for the concentration giving 50% growth inhibition. As a reminder, the TGI is the concentration at which net growth stops. For the compound `CC1(C)C(=O)/C(=C\c2cccnc2)C[C@]2(C)[C@H]3CC[C@@H]4[C@H]5[C@H](C(=O)/C=C/c6cccnc6)CC[C@]5(C(=O)O)CC[C@@]4(C)[C@]3(C)CC[C@@H]12`, the GI50 is 1.67 µM in assay [1]; 1.92 µM in assay [2]; 2.31 µM in [3]; 1.89 µM in [4]; 2.64 µM in assay [5]; 1.95 µM in assay [6]. Moreover, the values for the GI50 in assay [7], in assay [8] and in assay [9] were 1.88 µM, 2.1 µM and 4.37 µM, respectively. The TGI is 3.1 µM in assay [1]; 3.44 µM in assay [2]; 7.64 µM in assay [3]; 4.5 µM in assay [4]; 8.97 µM in [5]; 5.27 µM in [6]. The concentration for total growth inhibition (TGI) in assay [7] was 7.28 µM; in assay [8], 5 µM; in assay [9], above 100 µM.

With `COc1c(C(=O)/C=C/c2ccccc2)c(O)cc2occc12`, the GI50 in [1] was 3.56 µM; in assay [2], 7.97 µM; in [3] it was 1.64 µM; in assay [4] it was 11.3 µM; in assay [5] it was 8.89 µM; in [7], 3.15 µM. Besides, the GI50 in assay [8] is 3.81 µM; in assay [10], 6.03 µM; in assay [9] it was 5.4 µM. Moreover, the TGI in assay [1] was found to be 15.6 µM; in assay [2], 21.8 µM; in assay [3] it was 7.09 µM; in [4], 25.2 µM; in assay [5], 25.7 µM; in [7], 9.42 µM. For the same compound, the TGI in [8] came to 13.2 µM; in assay [10], 20.8 µM; in assay [9], 26.6 µM.

Regarding `COc1cc(OC)c(C(=O)/C=C/c2cccc(C(F)(F)F)c2)c(OC)c1`, the GI50 in [1] was 1.03 µM; in assay [2], 1.4 µM; in assay [3] it was 1.02 µM; in [4], 1.56 µM; in [5], 1.06 µM; in [7], 1.03 µM. Also, the GI50 in [8] was 1.73 µM; in assay [10], 1.16 µM; in [9], 2.24 µM. For the same compound, the concentration for total growth inhibition (TGI) in assay [1] came to 2.24 µM; in assay [2], 4.44 µM; in assay [3], 3.58 µM; in assay [4], 5.46 µM; in assay [5], 2.62 µM; in [7], 2.85 µM. The figures for the TGI in assay [8], in [10] and in [9] were 6.08 µM, 3.74 µM and 8.57 µM, respectively.

Take `Nc1ccccc1C#C/C=C\C#Cc1ccccc1N`: the GI50 in assay [1] was 16.8 µM; in assay [2], 13.6 µM; in assay [3], 1.2 µM; in assay [4], 12.1 µM; in [5], 5.04 µM; in assay [6], 4.18 µM. Besides, the results for the GI50 in assay [8], in assay [10] and in assay [9] were 26.8 µM, 19.6 µM and 34.2 µM, respectively. In addition, the TGI in assay [1] was determined as 47.6 µM; in assay [2], 36 µM; in [3], 12.2 µM; in assay [4], 32.3 µM; in assay [5] it was 22.7 µM; in assay [6], 33.7 µM. The results for the TGI in assay [8], in assay [10] and in assay [9] were above 100 µM, 53.8 µM and above 100 µM, respectively.

Regarding `S=c1ssc(N2CCOCC2)c1Cl`, the GI50 in [1] was 36 µM; in assay [3] it was 78.3 µM; in [4], above 100 µM; in [5], above 100 µM; in assay [6], 24.4 µM; in assay [7] it was 23.3 µM. Besides, the GI50 in [8] was 20.3 µM; in assay [10] it was above 100 µM; in [9], above 100 µM. Besides, the TGI in assay [1] was above 100 µM; in [3], above 100 µM; in assay [4], above 100 µM; in assay [5], above 100 µM; in [6], 63.3 µM; in [7] it was 69.2 µM. Also, the total growth inhibition concentration (TGI) in assay [8] is 56.5 µM; in assay [10], above 100 µM; in assay [9] it was above 100 µM.

For `COc1cc2c(cc1OCCCCC(=O)Nc1cc3c4ccccc4ccc3c3ccccc13)N=C[C@@H]1CCCN1C2=O`, the GI50 was 2.9 µM in assay [2]; 1.45 µM in [3]; 10.1 µM in [4]; 8.1 µM in assay [5]; 1.11 µM in [7]; 2.84 µM in assay [8]. In addition, the GI50 in assay [10] is 0.665 µM; in assay [9] it was 5.16 µM. In addition, the concentration for total growth inhibition (TGI) in assay [2] is 9.38 µM; in assay [3] it was above 20.9 µM; in assay [4], 40.8 µM; in assay [5] it was 33 µM; in assay [8], 14.1 µM; in assay [10], 10.8 µM. This compound also showed a TGI in assay [9] of 22.8 µM.

For the compound `COc1ccc(C(=O)c2cc(C)c(OC)c(C)c2)cc1OC(=O)CCl`, the GI50 was 1.45 µM in assay [2]; 12.4 µM in [3]; below 0.0191 µM in [4]; below 0.01 µM in assay [5]; below 0.01 µM in assay [6]; below 0.01 µM in assay [7]. The figures for the GI50 in [8], in assay [10] and in assay [9] were below 0.01 µM, 4.27 µM and 0.866 µM, respectively. Moreover, the TGI is 9.51 µM in [2]; above 96.1 µM in [3]; above 100 µM in [4]; 22.8 µM in [5]; below 0.01 µM in assay [6]; 25.3 µM in [7]. For the same compound, the concentration for total growth inhibition (TGI) in assay [8], in [10] and in [9] was above 100 µM throughout.

Take `CCCCC(CC)COC(=O)C[N+](C)(C)CCOC(c1ccccc1)c1ccccc1` (centres undefined): the GI50 in assay [1] is 1.48 µM; in [2], 3.12 µM; in assay [3], 1.86 µM; in [4] it was 9.89 µM; in assay [5], 1.63 µM; in [8], 5.53 µM. Moreover, the GI50 in assay [10] was 6.83 µM; in assay [9] it was 2.4 µM. The TGI in [1] is 3.34 µM; in assay [2], 15.2 µM; in [3] it was 4.9 µM; in [4], 28.6 µM; in assay [5] it was 3.23 µM; in assay [8], 18 µM. The TGI was found to be 27.4 µM in [10] and 6.99 µM in [9].
